Data set [1] relates to C. parapsilosis DSM 5784. Format: cell-based. The conditions noted are these: DSM 5784, 24 h.
A short description of data set [2]: Critical aggregation concentration with Nile red. The class given is physicochemical. The conditions noted are these: aqueous solution, Nile red 500 nM, 1 h, peptide 1-200 μM, emission maximum fitted with Boltzmann sigmoid, triplicate. As for the experimental part:
The peptide aggregation in the aqueous solution was monitored using Nile red as a dye probe. Nile red has poor solubility in water, and it has a large tendency to move in a hydrophobic environment as aggregates, showing a blue shift. First, the stock solutions of the peptides were prepared by dissolving them in ethanol, and then different aliquots were taken to prepare the peptide solutions at different concentrations (1, 5, 10, 15, 20, 30, 50, 100 and 200 μM). The ethanol was evaporated under a nitrogen gas stream and then dissolved with sterile water (1.5 mL), sonicated for 15 min and freeze-dried. Then, each peptide solution was hydrated with Nile red solution (C = 500 nM) in the dark place for 1 h before measurement. The emission spectra of Nile red were measured between 570 and 700 nm at a slit width of 5 nm using an excitation wavelength of 550 nm and a 10-nm slit width. The data were repeated in triplicate and analyzed by plotting the maximum emission fluorescence corresponding wavelength (y) as a function of the peptide concentration (x) and fitting with the sigmoidal Boltzmann equation: y=A1−A2/1+e^(x−x0/Δx)+A2
In the equation, A1 and A2 indicate the upper and lower limits of the sigmoid, respectively, x0 is the inflection point of the sigmoid and Δx is the parameter which represents the steepness of the function. The sigmoidal plot allows for calculating the CAC value at x0.

For data set [3], the system named is S. typhimurium strain TA100. Format: cell-based. The conditions noted are these: 12.5 µM, TA100 without S9, 37 °C, 5 days, duplicate; MR ≥2 = mutagenic. As for the experimental part:
The fluctuation Ames test was performed according to the manufacturer’s protocol provided for the Muta-ChromoPlate Bacterial Strain Kit (EBPI, Canada) and according to OECD Guideline 471 (OECD Guidelines for the Testing of Chemicals, Section 4, Test No. 471: Bacterial Reverse Mutation Test). S. typhimurium strain TA100 was used to assess the bacterial reverse mutation from amino acid (histidine) auxotrophy to prototrophy after exposure to mutagens. The overnight TA100 cultures were exposed to each peptide at a 12.5-µM concentration in the presence of bromocresol purple and then dispensed into 96-well microtiter plates. The plates were incubated at 37 °C for 5 days. After this period, the number of positive colonies was counted and statistically compared with the number of positive colonies in the blank wells to identify the spontaneous mutation rate. The negative control was distilled water, while the positive control was sodium azide for TA100 without S9. All experiments were conducted in duplicate. The results were expressed as the mutagenicity ratio (MR) and were obtained by dividing the number of reverse mutation colonies by the spontaneous mutation rate. When the MR was ≥2, the sample was judged to be mutagenic.

The nature of data set [4]: ANTS/DPX leakage, eukaryotic membrane-like LUVs. Conditions: peptide 50 μM, Chol/DOPC LUVs 0.1 mM lipid, PBS pH 7.2, 10 min, fluorescence 385/512 nm. As for the experimental part: (§1) ANTS/DPX-entrapped large unilamellar vesicles (LUVs) composed of PE/PC/PI/Ergosterol (5:4:1:2, w/w/w/w) and Chol/DOPC (70:30, ratio in moles) were prepared by the extrusion method as previously described in [28]. First, the lipid films were prepared by dissolving lipids in the proper ratio in chloroform to have a final concentration of 0.1 mM and then dried under a nitrogen gas stream. The probes of ANTS (12.5 mM) and DPX (45 mM) dissolved in water were added to the lipid films, and the mixture was freeze-dried overnight. The lipid films with encapsulated ANTS and DPX were hydrated with a PBS 1× buffer (pH = 7.2), vortexed for 1 h, freeze-thawed 6 times and extruded 10 times through 0.1-μm pore size polycarbonate filters to obtain the LUVs. The LUVs with entrapped ANTS and DPX were separated from the free ANTS and DPX by gel filtration chromatography on a Sephadex G-50 column (1.5 × 10 cm). The assay was based on the measurement of dequenching of ANTS by DPX when the LUVs were incubated with peptide concentrations of 5, 10, 15, 20, 30 and 50 μM. The increase in ANT fluorescence was recorded at an excitation fluorescence at 385 nm (slit width: 5 nm) and a fluorescence emission at 512 nm (slit width: 5 nm) for 10 min after the addition of the peptide. The destruction of all LUVs and the complete release of ANTs were obtained after treatment with 10% Triton-X. The percentage of liposome leakage was calculated as %leakage = (Fi − F0)/(Ft − F0), where F0 represents the fluorescence of the intact LUVs before the addition of the peptide and Fi and Ft are the intensities of the fluorescence achieved after peptide and Triton-X treatment, respectively.

Data set [5] concerns C. albicans cells. Put plainly: Zeta potential of fungal cells by dynamic light scattering. The class given is cell-based. Details: Calculated Zeta Potential: unit not given here. Conditions: for Experimental Zeta Potential (ς): C. albicans cells after peptide 25 μM, PBS 0.001×, electrophoretic light scattering; for Calculated Zeta Potential: theoretical: charge of the peptide added to the zeta potential of the C. albicans cells. As for the experimental part: The zeta potential of the fungal cells was recorded in a suspension (0.5 × 10^6 cells/mL) using the electrophoretic light scattering technique on a Zetasizer Nano ZS analyzer. Before the peptide treatment, the cells were suspended using a 0.05% trypsin solution in 0.53 mM EDTA. The concentration of the suspended cells in a buffered phosphate saline (PBS, 1.7 mM KH2PO4, 5.2 mM Na2HPO4 and 150 mM NaCl) was determined on a hemocytometer. The measurements were performed by diluting the cells with PBS 0.001× and treating them with the peptide at a concentration of 25 μM.

The nature of data set [6]: ANTS/DPX leakage, fungal membrane-like LUVs. Conditions: for leakage activity against liposomes mimicking the fungal membrane: PE/PC/PI/ergosterol LUVs, concentration not given; for liposome leakage (ANTS release), fungal membrane-like LUVs: peptide 20 μM, PE/PC/PI/ergosterol LUVs 0.1 mM lipid, PBS pH 7.2, 10 min, fluorescence 385/512 nm. As for the experimental part: as §1

For data set [7], the system named is G. mellonella larvae infected by different Candida species. Put plainly: G. mellonella fungal infection model (Kaplan-Meier survival). The class given is in vivo. The conditions noted are these: for in vivo effectiveness on infected G. mellonella larvae: 10^6 yeast cells with 12.5 μM peptide, 10 μL injected, 37 °C, different Candida species. As for the experimental part: The G. mellonella fungal infection model was performed as described previously. We first determined the lethal concentrations of C. albicans, C. auris, C. glabrata, C. tropicalis and C. parapsilosis inocula by injecting concentrations of 10^4, 10^5 or 10^6 cells/larvae. The larvae were kept in Petri dishes at 37 °C, and survival was monitored for 3 d. A system of scoring already proposed by Loh et al. based on survival, mobility, degree of melanization, and the ability to produce a cocoon was used to evaluate the physical state of the larvae for 3 days. To evaluate the effects of the five peptides on Candida infection and compare mortality, 10 μL of 10^6 yeast cells in a medium containing 12.5 μM of each peptide’s concentrations was injected into the last left proleg of the larvae and incubated at 37 °C. The larvae were incubated at 37 °C and monitored daily for survival.

SMILES strings stand for the structures. ≈ marks a conversion by molar mass, not a printed value. Where “and” joins values, the source holds several entries; their conditions need not be identical. Equal values may be shown once. Positions of bridges follow the written chain, without caps; N, C: chain ends. Non-standard residues stand in square brackets, D forms with d. Residues, ends and D or L forms follow the SMILES beside them. Triazole bridges read from a SMILES are 1,4-linked. Lys(N3) = [N-]=[N+]=NCCCC[C@H](N)C(=O)O; Pra = C#CC[C@H](N)C(=O)O

On to `CC[C@H](C)[C@H](NC(=O)[C@H](CCCNC(=N)N)NC(=O)[C@@H]1CCC(=O)NCCCC[C@H](NC(=O)[C@H](Cc2ccccc2)NC(=O)[C@H](Cc2c[nH]c3ccccc23)NC(=O)[C@@H]2CCCN2C(=O)[C@@H](NC(=O)[C@@H](N)Cc2ccccc2)C(C)C)C(=O)N[C@@H](CCCCN)C(=O)N[C@@H](Cc2ccccc2)C(=O)N[C@H](CC(C)C)C(=O)N1)C(=O)N[C@@H](CC(C)C)C(N)=O` [compound 3] (H-FVPWFKKF[dL]ERIL-NH2; lactam 6-10; N-terminus assumed), for which the “MFC, C. parapsilosis DSM 5784” value in data set [1] worked out at 50 µM (≈ 85.2 µg/mL). In data set [2], the “critical aggregation concentration (CAC)” value turned out to be 17.3 ± 0.9 µM. The “mutagenicity ratio (MR)” value in data set [3] is reported as under 2. Further, the “liposome leakage (ANTS release), eukaryotic membrane-like LUVs” value in data set [4] was ~ 28%. In addition, in data set [5], the “Experimental Zeta Potential (ς)” value is 1.6 ± 0.3 mV and the “Calculated Zeta Potential” value is reported as −3.2 ± 0.5. Also, in data set [6], the “leakage activity against liposomes mimicking the fungal membrane” value is reported as about 30% and the “liposome leakage (ANTS release), fungal membrane-like LUVs” value is reported as ~ 30%. The “survival rate of infected larvae” value in data set [7] (12.5 μM, larvae infected by all strains, after 48 h) is given as “increased the survival rate”. In addition, the “in vivo effectiveness on infected G. mellonella larvae” value in data set [7] is reported as “in vivo effectiveness”.
`CC(C)C[C@H](NC(=O)[C@@H]1CCCCn2cc(nn2)C[C@H](NC(=O)[C@H](CCCCN)NC(=O)[C@H](CO)NC(=O)[C@H](Cc2ccccc2)NC(=O)[C@H](Cc2c[nH]c3ccccc23)NC(=O)[C@@H]2CCCN2C(=O)[C@@H](NC(=O)[C@@H](N)Cc2ccccc2)C(C)C)C(=O)N[C@H](CC(C)C)C(=O)NCC(=O)N[C@@H](CCCNC(=N)N)C(=O)N1)C(N)=O` [compound 7] (H-FVPWFSK[Pra][dL]GR[Lys(N3)]L-NH2; triazole 8-12; N-terminus assumed): the “MFC, C. parapsilosis DSM 5784” value in data set [1] came to 50 µM (≈ 79.9 µg/mL). Also, the “critical aggregation concentration (CAC)” value in data set [2] amounted to 45.4 ± 0.8 µM. The “mutagenicity ratio (MR)” value in data set [3] is under 2. Moreover, in data set [4], the “liposome leakage (ANTS release), eukaryotic membrane-like LUVs” value was ~ 28%. Besides, in data set [5], the “Experimental Zeta Potential (ς)” value is −4.5 ± 1.6 mV and the “Calculated Zeta Potential” value is −3.2 ± 0.5. Further, in data set [6], the “liposome leakage (ANTS release), fungal membrane-like LUVs” value was “lower ANTS release”. Besides, the “in vivo effectiveness on infected G. mellonella larvae” value in data set [7] is on record as “in vivo effectiveness”.
Take `CC[C@H](C)[C@H](NC(=O)[C@H](CCCNC(=N)N)NC(=O)[C@@H]1CCCCNC(=O)CC[C@H](NC(=O)[C@H](Cc2ccccc2)NC(=O)[C@H](Cc2c[nH]c3ccccc23)NC(=O)[C@@H]2CCCN2C(=O)[C@@H](NC(=O)[C@@H](N)Cc2ccccc2)C(C)C)C(=O)N[C@@H](CCCCN)C(=O)N[C@@H](Cc2ccccc2)C(=O)N[C@H](CC(C)C)C(=O)N1)C(=O)N[C@@H](CC(C)C)C(N)=O` [compound 15] (H-FVPWFEKF[dL]KRIL-NH2; lactam 6-10; N-terminus assumed): the “MFC, C. parapsilosis DSM 5784” value in data set [1] worked out at 50 µM (≈ 85.2 µg/mL). Further, the “critical aggregation concentration (CAC)” value in data set [2] was 17 µM and 17.8 ± 0.9 µM. Moreover, the “mutagenicity ratio (MR)” value in data set [3] was under 2. For the same compound, in data set [5], the “Experimental Zeta Potential (ς)” value is recorded as 13.5 ± 3.4 mV and the “Calculated Zeta Potential” value is recorded as −3.2 ± 0.5. Moreover, in data set [6], the “leakage activity against liposomes mimicking the fungal membrane” value is “less than 20%” and the “liposome leakage (ANTS release), fungal membrane-like LUVs” value is listed as “lower ANTS release”. The “in vivo effectiveness on infected G. mellonella larvae” value in data set [7] is “in vivo effectiveness”.
`CC[C@H](C)[C@H](NC(=O)[C@H](CCCNC(=N)N)NC(=O)[C@@H]1CSSC[C@H](NC(=O)[C@H](Cc2ccccc2)NC(=O)[C@H](Cc2c[nH]c3ccccc23)NC(=O)[C@@H]2CCCN2C(=O)[C@@H](NC(=O)[C@@H](N)Cc2ccccc2)C(C)C)C(=O)N[C@@H](CCCCN)C(=O)N[C@@H](Cc2ccccc2)C(=O)N[C@H](CC(C)C)C(=O)N1)C(=O)N[C@@H](CC(C)C)C(N)=O` [compound 16] (H-FVPWFCKF[dL]CRIL-NH2; disulfide 6-10; N-terminus assumed): the “MFC, C. parapsilosis DSM 5784” value in data set [1] is listed as over 50 µM. In data set [2], the “critical aggregation concentration (CAC)” value amounted to 42.9 ± 0.7 µM. Besides, the “mutagenicity ratio (MR)” value in data set [3] is under 2. In data set [4], the “liposome leakage (ANTS release), eukaryotic membrane-like LUVs” value is ~ 28%. For the same compound, in data set [5], the “Experimental Zeta Potential (ς)” value is −6.5 ± 0.2 mV and the “Calculated Zeta Potential” value is listed as −3.2 ± 0.5. Besides, in data set [6], the “liposome leakage (ANTS release), fungal membrane-like LUVs” value was “lower ANTS release”. The “in vivo effectiveness on infected G. mellonella larvae” value in data set [7] is on record as “in vivo effectiveness”.

These data come from publication PMC8877061, “Antifungal and Antibiofilm Activity of Cyclic Temporin L Peptide Analogues against Albicans and Non-Albicans Candida Species” (Pharmaceutics, 2022).
